For one compound, Activity results are on record in ChEMBL document CHEMBL2086272, “Anticlastogenic effect in human lymphocytes by the sodium salt of 3,4-secoisopimar-4(18),7,15-trien-3-oic acid” (J Nat Prod, 2012).

Data set [1] has as its system PBL. Description: Antimutagenic activity in human PBL assessed as inhibition of ethyl methanesulfonate-induced frequency of micronucleus per 1000 binucleated lymphocyte cells at 3.3 uM pretreated before ethyl methanesulfonate by cytokinesis blocking technique (reference value: 3.33 +/- 0.88 micronucleus frequency/1000 binucleated lymphocyte cells). It counts as functional.

The test system of data set [2] is PBL. Description: Antimutagenic activity in human PBL assessed as inhibition of colcemid-induced frequency of micronucleus per 1000 binucleated lymphocyte cells at 33 uM treated after treatment with colcemid by cytokinesis blocking technique (reference value: 3.33 +/- 0.33 micronucleus frequency/1000 binucleated lymphocyte cells). The data set is classed as functional.

In data set [3] the test system is PBL. Description: Cytotoxicity in human PBL assessed as nuclear division index at 33 uM co-treated with colcemid (reference value: 1.65 +/- 0.06 nuclear division index). The data set is classed as cell-based.

SMILES strings stand for the structures.

Turning to `C=C[C@@]1(C)CC[C@H]2C(=CC[C@@H](C(=C)C)[C@]2(C)CCC(=O)[O-])C1.[Na+]`, the results for the Activity in data set [1], in data set [2] and in data set [3] were 5.75, 11.75 and 1.51, respectively.
